Results as given in US5248673A, “Bisamidine derivatives as thrombin inhibitors” (Bristol-Myers Squibb Co., priority 1992, dated 1993).
Counter-ions that a name gives are not always drawn. Like-named read-outs stand apart in the source and are kept apart here.

Columns and labels:
human α-thrombin [1] = biological target: T1, human α-thrombin (Homo sapiens, UniProt P00734); assay: Enzyme assay for the inhibition of thrombin (s-2238 chromogenic substrate); type: biochemical; details: Table I, determined graphically from Dixon plots, room temperature, pH 7.4, substrate s-2238
T1 construct: purified human α-thrombin
Protocol: Enzyme Assays for the Inhibition of Thrombin The following reagents were used in these assays: […] Inhibitors to be tested were dissolved in H2 O, methanol, or DMSO just prior to use. To each well in a 96-well microtiter plate, 270 μl of assay buffer was added. […] The samples were incubated at room temperature for a defined period of time (3 minutes for initial IC50 determinations). The enzymatic reaction was started with 10 μl of 3 mM s-2238 substrate and continued at room temperature. The change in optical density was measured at 405 nm. A kinetic microplate reader (Molecular Devices Corporation .nu.max) was used to measure the change in optical density over time. Table I lists the Ki values for different compounds, Ki value is determined graphically from Dixon plots (plots of reciprocal enzyme velocity i/v vs. linear function of inhibitor concentration at various enzyme substrate concentrations). This methodology is well known in the art.

human α-thrombin [2] = biological target: T1, human α-thrombin; assay: Concentration required for doubling thrombin clotting time (clotting time assay in human plasma); type: biochemical; details: Table II; human citrated plasma, 10 U/ml human thrombin; read-out: DTT (concentration of drug which caused a doubling of the thrombin clotting time)
Protocol: Procedure for Determining the Concentration Required for Doubling Thrombin Clotting Time--Clotting Time Assays
The following reagents were used in these assays:
The blood was centrifugated at […]. The plasma was removed, pooled, and aliquoted into small tubes which were stored frozen for later use.
Clotting times were determined by pipetting 0.1 ml of Owren's buffer (pre-warmed to 37° C.) and 0.1 ml of human or rat plasma into yellow sample cuvettes. For studies with human plasma 10 U/ml human thrombin (10 ml) was placed in the reservoir assembly station of the MLA 700. (Medical Laboratory Automation, Electra 700 Reservoir Assembly). For rat studies, the human thrombin concentration was 25 U/ml. The cuvettes were vortexed and then placed on the MLA 700 sample wheel. The coagulation timer (MLA 700) automatically dispenses 0.1 ml human thrombin into the sample in each cuvette. Detection of the fibrin clot was determined optically by the MLA 700.
Studies were performed to determine the concentration of drug which caused a doubling of the clotting time (DTT) in human plasma.

Structure (SMILES) | Ki (human α-thrombin [1]; read-out: Ki) | IC (2-fold clotting time) (human α-thrombin [2]) | Ki (human α-thrombin [1])
CC1CCN(C(=O)C(CCNC(=N)C(=N)N)NS(=O)(=O)c2cccc3c(N(C)C)cccc23)CC1 (stereo not drawn) [Compound 7b] | 4 µM |  | 
CC1CCN(C(=O)C(CCCNC(=N)C(=N)N)NS(=O)(=O)c2cccc3c(N(C)C)cccc23)CC1 (stereo not drawn) [Compound 7c, 1-[5-[(2-amino-1,2-diiminoethyl)amino]-2-[[[5-(dimethylamino)-1-naphthalenyl]sulfonyl]amino]-1-oxopentyl]-4-methylpiperidine trihydrochloride hydrate] | 0.33 µM |  | 
CCC1CCN(C(=O)C(CCCNC(=N)C(=N)N)NS(=O)(=O)c2cccc3c(N(C)C)cccc23)CC1 (stereo not drawn) [Compound 7d, 1-[5-[(2-amino-1,2-diiminoethyl)amino]-2-[[[5-(dimethylamino)-1-naphthalenyl]sulfonyl]amino]-1-oxopentyl]-4-ethylpiperidine trihydrochloride hydrate] | 0.3 µM |  | 
CN(C)c1cccc2c(S(=O)(=O)NC(CCCNC(=N)C(=N)N)C(=O)N3CCOCC3)cccc12 (stereo not drawn) [Compound 7e, 1-[5-[(2-amino-1,2-diiminoethyl)amino]-2-[[[5-(dimethylamino)-1-naphthalenyl]sulfonyl]amino]-1-oxopentyl]morpholine trihydrochloride hydrate] | 2 µM | 4 µM | 
CCCCN(CC(=O)OCC)C(=O)C(CCCNC(=N)C(=N)N)NS(=O)(=O)c1cccc2c(N(C)C)cccc12 (stereo not drawn) [Compound 7f, ethyl N-[5-[(2-amino-1,2-diiminoethyl)amino]-2-[[[5-(dimethylamino)-1-naphthalenyl]sulfonyl]amino]-1-oxopentyl]-N-butylglycinate trihydrochloride hydrate] | 3 µM |  | 
CN(C)c1cccc2c(S(=O)(=O)NC(CCCNC(=N)C(=N)N)C(=O)N3CCCCCC3)cccc12 (stereo not drawn) [Compound 7g, 1-[5-(2-amino-1,2-diiminoethyl)amino]-2-[[[5-(dimethylamino)-1-naphthalenyl]sulfonyl]amino]-1-oxopentyl]homopiperidine trihydrochloride hydrate] | 0.4 µM | 1.8 µM | 
N=C(N)C(=N)NCCC(NC(=O)CNS(=O)(=O)c1ccc2ccccc2c1)C(=O)N1CCCCC1 (stereo not drawn) [Compound 7m] | 36 µM |  | 
N=C(N)C(=N)NCCCC(NC(=O)CNS(=O)(=O)c1ccc2ccccc2c1)C(=O)N1CCCCC1 (stereo not drawn) [Compound 7n] | > 50 µM |  | 

Continued, values first:

Ki (human α-thrombin [1]; read-out: Ki) | IC (2-fold clotting time) (human α-thrombin [2]) | Ki (human α-thrombin [1]) | Structure (SMILES)
3.2 µM |  |  | CN(C)c1cccc2c(S(=O)(=O)NC(CCCNC(=N)C(=N)N)C(=O)N3CCCCC3)cccc12 (stereo not drawn) [Compound 7a, 1-[5-[(2-amino-1,2-diminoethyl)amino]-2-[[[5-(dimethylamino)-1-naphthalene]amino]-1-oxopentyl]piperidine hydrochloride]
 | > 300 µM | insol. | Cc1ccc(S(=O)(=O)NC(CNC(=N)C(=N)N)C(=O)N2CCCCC2)cc1 (stereo not drawn) [Compound 7h]
80 µM |  |  | Cc1ccc(S(=O)(=O)NC(CCNC(=N)C(=N)N)C(=O)N2CCCCC2)cc1 (stereo not drawn) [Compound 7i]
16 µM |  |  | Cc1ccc(S(=O)(=O)NC(CCCNC(=N)C(=N)N)C(=O)N2CCCCC2)cc1 (stereo not drawn) [Compound 7j]
55 µM | 150 µM |  | Cc1ccc(S(=O)(=O)NC(CCCCNC(=N)C(=N)N)C(=O)N2CCCCC2)cc1 (stereo not drawn) [Compound 7k, 1-[6-[(2-amino-1,2-diiminoethyl)aminol]-2-[[(4-methylphenyl)sulfonyl]amino]-1-oxohexyl]piperidine dihydrochloride]
18 µM |  |  | Cc1ccc(S(=O)(=O)NC(CCCNC(=N)C(=N)N)C(=O)N2CCC(C)CC2)cc1 (stereo not drawn) [Compound 7l, 1-[5-[2-(amino-1,2-diiminoethyl)amino]-2-[[(4-methylphenyl)sulfonyl]amino]-1-oxopentyl]-4-methylpiperidine hydrochloride]
